# Values of other authors, collected in patent publication US6433221B1 (RPC Inc., priority 1998, dated 2002).
# Like-named read-outs stand apart in the source and are kept apart here.
# How the values were obtained:
# [1] = cyclohexanone in water; for mol % H2O: balance
# [2] = water in cyclohexanone; for mol % CHxO: balance
compound,measurement,setting,value
O=C1CCCCC1 [Cyclohexanone],mol % CHxO,[1]; 20 °C,1.98% mol %
same,wt % CHxO,[1]; 20 °C,10.00% wt %
same,mol % H2O,[1]; 20 °C,98.02% mol %
same,mol % CHxO,[1]; 25 °C,1.85% mol %
same,wt % CHxO,[1]; 25 °C,9.39% wt %
same,mol % H2O,[1]; 25 °C,98.15% mol %
same,mol % CHxO,[1]; 30 °C,1.73% mol %
same,wt % CHxO,[1]; 30 °C,8.83% wt %
same,mol % H2O,[1]; 30 °C,98.27% mol %
same,mol % CHxO,[1]; 50 °C,1.43% mol %
same,wt % CHxO,[1]; 50 °C,7.39% wt %
same,mol % H2O,[1]; 50 °C,98.57% mol %
same,mol % CHxO,[1]; 70 °C,1.34% mol %
same,wt % CHxO,[1]; 70 °C,6.95% wt %
same,mol % H2O,[1]; 70 °C,98.66% mol %
same,mol % CHxO,[1]; 90 °C,1.44% mol %
same,wt % CHxO,[1]; 90 °C,7.44% wt %
same,mol % H2O,[1]; 90 °C,98.56% mol %
O [Water],mol % H2O,[2]; 20 °C,25.1% mol %
same,wt % H2O,[2]; 20 °C,5.7% wt %
same,mol % CHxO,[2]; 20 °C,74.9% mol %
same,wt % H2O,"[2]; 20 °C, listed as water",5.7 wt %
same,mol % H2O,[2]; 25 °C,25.6% mol %
same,wt % H2O,[2]; 25 °C,5.9% wt %
same,mol % CHxO,[2]; 25 °C,74.4% mol %
same,mol % H2O,[2]; 30 °C,26.1% mol %
same,wt % H2O,[2]; 30 °C,6.0% wt %
same,mol % CHxO,[2]; 30 °C,73.9% mol %
same,mol % H2O,[2]; 50 °C,28.7% mol %
same,wt % H2O,[2]; 50 °C,6.8% wt %
same,mol % CHxO,[2]; 50 °C,71.3% mol %
same,mol % H2O,[2]; 70 °C,32.6% mol %
same,wt % H2O,[2]; 70 °C,8.1% wt %
same,mol % CHxO,[2]; 70 °C,67.4% mol %
same,mol % H2O,[2]; 90 °C,38.5% mol %
same,wt % H2O,[2]; 90 °C,10.2% wt %
same,mol % CHxO,[2]; 90 °C,61.5% mol %
